Experimental data as given in patent US6696460B2, “Tetrahydropyridoethers” (Atlanta Pharma AG, priority 1998, dated 2004).

System: pentagastrin-stimulated acid secretion of the perused rat stomach
Assay: Secretion-inhibiting action on the perfused rat stomach (pentagastrin-stimulated, in vivo)
Details: anesthetized CD rat, dose 3 μmol/kg i.v.
From the text: Testing of the Secretion-Inhibiting Action on the Perfused Rat Stomach
The abdomen of anesthetized rats (CD rat, female, 200-250 g; […] i.m. urethane) was opened after tracheotomy by means of a median upper abdominal incision and a PYC catheter was fixed transorally in the esophagus and another via the pylorus such that the ends of the tube just projected into the gastric lumen. The catheter leading from the pylorus led outwards into the right abdominal wall through a side opening.
After thorough rinsing (about 50-100 ml), warm physiological NaCl solution at 37° C. was continuously passed through the stomach (0.5 ml/min. pH 6.8-6.9; Braun-Unita I). The pH (pH meter 632, glass electrode EA 147; φ=5 mm, Metrohm) and, by titration with a freshly prepared 0.01 N NaOH solution to pH 7 (Dosimat 665 Metrohm), the secreted HCl were determined in the effluent in each case collected at an interval of 15 minutes.
The gastric secretion was stimulated by continuous infusion of 1 μg/kg (=1.65 ml/h) of I.v. pentagastrin (left femoral vein) about 30 min after the end of the operation (i.e after determination of 2 preliminary fractions). The substances to be tested were administered intravenously in 1 ml/kg liquid volumes 60 min after the start of the pentagastrin continuous infusion.
The body temperature of the animals was kept at a constant 37.8-38° C. by infrared irradiation and heat pads (automatic, stepless control by means of a rectal temperature sensor).

**Q.** For `COCCO[C@H]1c2ccn3c(C)c(C)nc3c2N[C@H](c2ccccc2)[C@H]1O` [Example 6, (7S, 8R, 9R)-2,3-Dimethyl-8-hydroxy-7-(2-methoxyethoxy)-9-phenyl-7,8,9,10-tetrahydro-imiazo[1,2-h][1,7]naphthyridine], which “Inhibition of acid secretion” value is on record?
**A.** The value was 100%.

**Q.** With `CCO[C@@H]1c2ccn3c(C)c(C)nc3c2N[C@H](c2ccccc2)[C@H]1O` [Example 4, (7R, 8R, 9R)-2,3Dimethyl-7-ethoxy-8-hydroxy-phenyl-7,8,9,10-tetrahydro-imidazo[1,2-h]-[1,7]naphythryridine] as the molecule, how does the “Inhibition of acid secretion” value read?
**A.** Its value is 100%.

**Q.** For `CO[C@H]1c2ccn3c(C)c(C)nc3c2N[C@H](c2ccccc2)[C@H]1O` [Example 2, (7S, 8R, 9R)-2,3-Dimethyl-8-hydroxy-7-methoxy-9-phenyl-7,8,9,10-tetrahydro-imidazo[1,2-h]-[1,7]naphythyridine], which “Inhibition of acid secretion” value is on record?
**A.** Its value is 100%.

**Q.** For `CO[C@@H]1c2ccn3c(C)c(C)nc3c2N[C@H](c2ccccc2)[C@H]1O` [Example 1], which “Inhibition of acid secretion” value is on record?
**A.** The value was 100%.

**Q.** For `CO[C@@H]1[C@@H](c2ccccc2)Nc2c(ccn3c(C)c(C)nc23)[C@H]1OC` [Example 8], which “Inhibition of acid secretion” value is on record?
**A.** The value was 100%.

Same assay, conditions: iv, anesthetized CD rat, dose 3 μmol/kg i.v.

**Q.** Which inhibition at 3 µmol/kg does the source give for `COCCO[C@@H]1c2ccn3c(C)c(C)nc3c2N[C@H](c2ccccc2)[C@H]1O` [Example 5, (7R, 8R, 9R)-2,3-Dimethyl-8-hydroxy-7-(2-methoxyethoxy)-9-phenyl-7,8,9,10-tetrahydro-imidazo[1,2-h][1,7]naphthyridine] here?
**A.** The inhibition at 3 µmol/kg was 100%.

**Q.** For `Cc1nc2c3c(ccn2c1C)[C@H](OC(C)C)[C@H](O)[C@@H](c1ccccc1)N3` [Example 7, (7S, 8R, 9R)-2,3-Dimethyl-8-hydroxy-9-phenyl-7-(2-propoxy)-7,8,9,10-tetrahydro-imidazo[1,2-h][1,7]naphthyridine], which inhibition at 3 µmol/kg is on record?
**A.** The inhibition at 3 µmol/kg was 100%.

**Q.** Which inhibition at 3 µmol/kg does the source give for `CCO[C@@H]1c2ccn3c(C)c(C)nc3c2N[C@H](c2ccccc2)[C@H]1O` [Example 3, (7R, 8R, 9R)-2,3-Dimethyl-7-ethoxy-8-hydroxy-9-phenyl-7,8,9,10-tetrahydro-imidazo[1,2-h]-[1,7]naphthyridine] here?
**A.** Its inhibition at 3 µmol/kg is 100%.

System: not given
Assay: not given
Details: not given

**Q.** For `Cc1nc2c3c(ccn2c1C)[C@H](OC(C)C)[C@H](O)[C@@H](c1ccccc1)N3` [Example 7, (7S, 8R, 9R)-2,3-Dimethyl-8-hydroxy-9-phenyl-7-(2-propoxy)-7,8,9,10-tetrahydro-imidazo[1,2-h][1,7]naphthyridine], which melting point is on record?
**A.** Its melting point is 168 to 169 °C.

**Q.** With `CO[C@H]1c2ccn3c(C)c(C)nc3c2N[C@@H](c2ccccc2)[C@@H]1O` [Example 1B, (7S, 8S, 9S)-2,3-Dimethyl-8-hydroxy-7-methoxy-9-phenyl-7,8,9,10-tetrahydro-imidazo[1,2-h]-[1,7]naphthyridine] as the molecule, how does the melting point read?
**A.** Its melting point is 161 to 162 °C.

**Q.** Which melting point does the source give for `CO[C@@H]1c2ccn3c(C)c(C)nc3c2N[C@@H](c2ccccc2)[C@@H]1O` [Example 2B, (7R, 8S, 9S)-2,3-Dimethyl-8-hydroxy-7-methoxy-9-phenyl-7,8,9,10-tetrahydro-imidazo[1,2-h]-[1,7]naphthyridine] here?
**A.** Its melting point is 171 to 172 °C.

**Q.** For `CCO[C@@H]1c2ccn3c(C)c(C)nc3c2N[C@H](c2ccccc2)[C@H]1O` [Example 3, (7R, 8R, 9R)-2,3-Dimethyl-7-ethoxy-8-hydroxy-9-phenyl-7,8,9,10-tetrahydro-imidazo[1,2-h]-[1,7]naphthyridine], which melting point is on record?
**A.** The melting point was 188 to 190 °C.
